Results on one compound are retold here after US11464854B2, “Methods and compositions relating to adjuvants” (Children's Medical Center Corporation, priority 2017, dated 2022).

The test system of data set [1] is cytokine and IFN-inducible gene expression in draining lymph nodes and spleen. Format: in vivo, mice. The following applies: mice.
A short description of data set [2]: Safety and reactogenicity monitoring in neonatal/infant rhesus macaques. The format is in vivo, rhesus macaques (Macaca mulatta). On the procedure:
In vivo neonatal and infant rhesus macaque vaccination studies. Rhesus macaques (Indian origin Macaca mulatta) were obtained from the TNPRC specific pathogen-free breeding colony. Upon identification, pregnant dams were transferred to an indoor social group to allow for monitoring and delivery of infants. At birth, neonatal rhesus macaques (<24 hours of age) were enrolled into the longitudinal immunization study. Exclusion criteria were, a) maternal fever (≥40° C.) during infant exam on DOL0, b) birth weight<400 g, c) clinical signs of neonatal infection (e.g. infant temperature […]; nasal, ocular discharge; respiratory distress, cardiovascular instability), d) congenital defects (e.g. abnormal digits, omphalocele) and/or e) abnormal cling. Animals were group-housed in dam/infant pairs with a maximum of 4 pairs (8 animals) together. […] Standard physiological safety parameters, extrapolated from human infant clinical trials of PCV (28), included temperature and weight (normalized to Tulane National Primate Research Center reference standard for rhesus macaques), which were recorded at multiple time-points at observation/sample-acquisition, as well as local signs of reactogenicity such as leg circumference pre/post-immunization and photographic documentation of erythema (Table 4). […]

Data set [3] addresses T1, human TLR8 (Homo sapiens, UniProt Q9NR97).
T1 construct: host or cells: HEK293 with NF-kB-responsive SEAP reporter
T1 sequence (Q9NR97 27-1041): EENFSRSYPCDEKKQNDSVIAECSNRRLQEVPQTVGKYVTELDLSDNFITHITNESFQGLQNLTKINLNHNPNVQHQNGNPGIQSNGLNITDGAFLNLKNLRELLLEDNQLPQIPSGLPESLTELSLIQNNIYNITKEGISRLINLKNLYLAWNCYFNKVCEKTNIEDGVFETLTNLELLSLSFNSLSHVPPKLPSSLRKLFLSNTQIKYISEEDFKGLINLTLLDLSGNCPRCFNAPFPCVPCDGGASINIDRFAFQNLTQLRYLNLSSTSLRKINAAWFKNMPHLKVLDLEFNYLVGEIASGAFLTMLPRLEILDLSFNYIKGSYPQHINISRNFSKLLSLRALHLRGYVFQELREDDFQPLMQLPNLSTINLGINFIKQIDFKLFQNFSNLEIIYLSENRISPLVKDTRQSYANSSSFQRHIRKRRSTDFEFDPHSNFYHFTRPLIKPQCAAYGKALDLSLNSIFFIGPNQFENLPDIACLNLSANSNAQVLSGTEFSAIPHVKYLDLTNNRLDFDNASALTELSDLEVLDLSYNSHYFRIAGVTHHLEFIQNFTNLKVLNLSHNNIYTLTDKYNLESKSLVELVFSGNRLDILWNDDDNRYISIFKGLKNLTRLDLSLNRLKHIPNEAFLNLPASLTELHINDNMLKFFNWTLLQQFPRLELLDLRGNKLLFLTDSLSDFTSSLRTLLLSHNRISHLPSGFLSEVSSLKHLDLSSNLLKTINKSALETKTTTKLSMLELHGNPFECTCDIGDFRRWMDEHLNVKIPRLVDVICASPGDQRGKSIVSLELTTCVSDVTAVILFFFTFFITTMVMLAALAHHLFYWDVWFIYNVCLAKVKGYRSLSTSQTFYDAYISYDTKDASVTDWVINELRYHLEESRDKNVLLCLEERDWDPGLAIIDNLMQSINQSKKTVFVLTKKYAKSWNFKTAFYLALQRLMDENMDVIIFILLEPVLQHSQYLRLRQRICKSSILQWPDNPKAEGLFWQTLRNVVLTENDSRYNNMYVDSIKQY
The conditions noted are these: HEK293 cells stably expressing human TLR8 (ref. 24); cited from earlier work.

Structures are written as SMILES.

For the compound `CCCCCCCCCCCCCCCCCC(=O)NCCCCOn1c(CCCC)nc2c(N)nc3ccccc3c21` [3M-052, N-[4-[(4-amino-2-butyl-1H-imidazo[4,5-c]quinolin-1-yl)oxy]butyl]octadecanamide], in data set [1] (SC administration), the “IFN-related and TLR7 gene expression in the spleens” value was “robust”; the “cytokine mRNA expression” value is on record as “little if any”. The “time of peak cytokine mRNA expression” value in data set [1] (single SC dose, lymph node tissue and splenocytes) was 6 h. Moreover, the “animals with transient and mild maculopapular rash” value in data set [2] (3M-052- or (PCV13+3M-052)-treated infant animals, co-housed, second enrollment season) is 3 of the total of 16. In addition, in data set [2] (with or without PCV13, first 63 days of life or 48 hours post (DOL30) a single dose), the “systemic cytokine induction (plasma)” value is given as “did not induce systemic cytokine induction”. Besides, the “agonist activity, human TLR8” value in data set [3] is “Dual agonist activity”.
